Assays:
[1] = system: Hepa1.6 mouse hepatoma cells; assay: Hepatocellular carcinoma mice model; type: in vivo; conditions: Sorafenib 40 mg/kg daily oral gavage, day 0 to day 28 (FIG. 10)
Method: Eight-weeks-old C57B1/6J male mice received 2.5×10^6Hepa1.6 mouse hepatoma cells in 100 μL through the portal vein, as previously described (Gauttier et al., 2014). Four and eight days after tumour inoculation, mice were injected intraperitoneally with 100 μg of rat anti-CD137 mAb (4-1BB mAb), or with 300 μg of anti-mouse SIRPα monoclonal antibody (clone P84 from Merck Millipore) or both antibodies or an irrelevant control antibody (clone 3G8) 3 times/week for 4 weeks (FIG. 17A) or with 200 μg of the anti-PD-LI mAb (clone 10F-9G2 from BioXCell) or received both antibodies (anti-SIRPα+anti-PDL1) for 4 weeks (FIG. 17B). Sorafenib (Nexavar-Bayer) treated mice received daily 100 μl oral gavage of 40 mg/kg from day 0 to day 28 (FIG. 10). The overall survival was analyzed. Some mice were sacrificed at day 14 after tumor inoculation for leukocytes tumor infiltration quantification and characterization by isolation of non-parenchymal cells of the liver by a Percoll gradient and FACS analysis.

rat MDSC = assay: Rat MDSC two-day culture with anti-SIRPα antibody, with or without GM-CSF, phenotype by flow cytometry; type: cell-based; conditions: two days, GM-CSF 10 ng/ml with or without anti-SIRPα 10 μg/ml (FIG. 4)
Excerpt: Human blood MDSC were characterized and sorted by flow cytometry as follow: CD11b^+CD33^+HLA-DR^low/−CD14^+CD15^− for Mo-MDSC and CD11b^+CD33^+HLA-DR^− CD14^− CD15+ for PMN-MDSC. Rat blood and spleen MDSC were characterized and sorted by flow cytometry as CD11b^+MHC ClassII-NKRP1^int (both Mo-MDSC and PMN-MDSC was included in this phenotype). Mouse MDSC were characterize as follow: CD11b^+MHC Class II-Ly6C^high Ly6G^− for Mo-MDSC and CD11b^+MHC Class II-Ly6C^+Ly6G^+ for PMN-MDSC.
MDSC were purified by flow cytometry according to previously described phenotypes. Purity of cells sorted by flow cytometry was higher than 99%. Freshly purified MDSC were then seeded at 50×10^3 cells/well in 96-well flat-bottomed microtiter plates and cultured for two days in RPMI-1640 medium (supplemented with 2 mM L-glutamine, 100 U/ml penicillin, 0.1 mg/ml streptomycin, 10% heat-inactivated fetal calf serum, 1% nonessential amino acids, 5 mM HEPES, 1 mM sodium pyruvate, and 1 μM 2-mercaptoethanol) and with irrelevant control antibody or anti-SIRPα monoclonal antibody (clone SE7C2 (Santa Cruz Biotechnology) and SE5A5 (Biolegend) for human MDSC or clone ED9 (AbD Serotec) for rat MDSC) at 10 μg/ml. In a different setting, recombinant GM-CSF (10 ng/ml) was also added to force the macrophages/dendritic cells differentiation. […]

Compound | mice rescued (overall survival) [1] [%] | differentiation of MDSC (MHC Class II, CD103, CD11b, CD80) (rat MDSC)
CNC(=O)c1cc(Oc2ccc(NC(=O)Nc3ccc(Cl)c(C(F)(F)F)c3)cc2)ccn1 [Sorafenib] | 60 | –
GM-CSF: recombinant GM-CSF added to force the macrophages/dendritic cells differentiation | – | induce the differentiation of MDSC in mature MHC Class II^+ myeloids cells

— patent publication US20240294659A1, “Method and Compositions for Inducing Differentiation of Myeloid Derived Suppressor Cell to Treat Cancer and Infectious Diseases” (OSE Immunotherapeutics, priority 2014, published 2024)
